Measurements: patent US20100286229A1, “Modulation of Androgen Receptor for Treatment of Prostate Cancer” (priority 2005, published 2010)
“Also recorded” adds a separate entry of the source.

Key:
Type in all cases: cell-based, human
AR [1] = assay: ARE-Luc (AR-dependent luciferase) reporter activity in CaP cells in CSS medium with DHT
CWR22R cells = assay: Cell growth by methylene blue staining in CSS medium with DHT, CWR22R; settings: 10 nM DHT
Hela cells = assay: Growth of AR-negative Hela cells with DHT (data not shown)
p21 = p21 protein level in lysates of LNCaP cells treated with DHT; settings: 1 nM and 10 nM DHT compared to 0 nM, 0.1 nm DHT or FBS
Text: Thus increased activity of AR due to its overexpression or hyper-stimulation with ligand inhibits cell growth, possibly due to induction of p21.

AR overexpressing cells = assay: Growth of cells transduced with AR lentivirus in CSS with or without DHT; settings: 0.3 nM DHT
Protocol: (§1) Cells were plated in 6 well plates at 10^5/well. The next day, cells were transduced with concentrated GFP or AR lentiviruses, yielding 50-100% transduction efficiency. […] The medium was changed every 48 h. Cells were collected for Western blotting and luciferase assays at different time points or fixed and stained with methylene blue on day 8 after transduction.
(§2) The growth of cells overexpressing AR, cultured in CSS with no DHT, was not different from GFP expressing cells. Thus, this growth reflects the general sensitivity of certain type of cells to the presence of steroids in medium (FIG. 13A).

AR [2] = assay: AR protein level in cells transduced with AR-lentivirus, CSS medium with or without DHT (Western blotting); settings: DHT-containing media vs CSS without DHT
Protocol: as §1, §2

AR mRNA [3] = assay: ARE-Luc reporter cotransfection with anti-AR shRNA constructs; settings: for ARE-Luc reporter activity: C4-2 cells, control shRNAs against GFP or FasL; for ARE-Luc reporter activity on endogenous AR: LNCaP cells, 48 h, control shGFP, shFasL
Text: Based on what was known from clinical oncology and AR mutation databases we hypothesized that complete inhibition of AR function would be toxic for both androgen-dependent and androgen-refractory prostate cancer cells, because prostate cancer cells very rarely lose AR signaling during cancer progression. To completely block AR activity in these cells we used an RNAi approach (FIG. 11). We synthesized several shRNA constructs targeting different portions of AR mRNA using a loop model (see Example 4 above).
Reporter assays were performed by transiently transfecting cells with pARE-Luc plasmid and pcDNA-3.1 hygro plasmids (empty or AR), or plasmids with shRNAs in different proportions. Transfection efficiency was normalized by citransfection of pCMV-LacZ plasmid or pEGFP-mito (Clontech). Reporter activity was measured using a Luciferase Assay System (Promega) at 48 h.

[4] = test system: CaP cells expressing endogenous AR; assay: Growth after retroviral anti-AR shRNA transduction and hygromycin selection, CaP cells expressing endogenous AR; settings: retroviral vector, hygromycin selection; for growth of CaP cells expressing endogenous AR: all tested CaP cells, control anti-GFP
Text: (§3) We confirmed that inhibition of AR signaling is growth suppressive for androgen-insensitive versions of CaP (FIG. 5). Based on what is known from clinical oncology and AR mutation databases, we hypothesized that complete inhibition of AR function would be deleterious for both androgen-dependent and androgen refractory prostate cancer cells since CaP cells very rarely loose AR signaling during progression. To estimate the dependency of prostate cancer cells on the expression of AR, we transduced them with retroviral vector expressing anti-AR siRNA with subsequent selection on hygromycin. Control cells were transduced with anti-GFP siRNA vector. Transduction efficiency was estimated in AR-negative cells, DU145.
We also estimated the dependency of prostate cancer cells on the expression of AR by transducing cells with a retroviral vector expressing anti-AR shRNA, followed by selection on hygromycin (FIG. 12). Control cells were transduced with anti-GFP shRNA vector; transduction efficiency was estimated on AR negative cells (DU145) transduced with the same viruses.
For the experiments in FIG. 12, retroviral packaging and transduction were performed as follows. Briefly, Ampho cells (Clontech) were transfected with retroviral expression vector. Medium with virus was collected at 48 h and immediately transferred onto the target cells. 8 μg/ml of polybrene (Sigma) was added to transduced cells. 24 h later, the medium was changed with fresh medium containing the appropriate antibiotic for selecting transduced cells. 10-14 days later, after complete death of control untransduced cells, the number of colonies was quantified, or cells were used for further experiments. Retroviral shRNA vectors were generated by inserting the H1 promoter and a cassette for cloning of shRNA into the right LTR of pLPCHygro plasmid (Clontech).
For the experiment in FIG. 12B, the number of colonies on each plate was counted and divided by number of colonies of AR-negative DU145 cells. The number of colonies of cells transduced with shRNA against GFP was set as 1. DU145 cells were obtained from ATCC.

proteasomes = assay: AR protein level in HeLa cell variants treated with proteasome inhibitor PS341
LNCaP cells = assay: Growth after retroviral anti-AR shRNA transduction and hygromycin selection, LNCaP; settings: retroviral vector, hygromycin selection, control anti-GFP
Text: as §3
(§4) We also estimated the dependency of prostate cancer cells on the expression of AR by transducing cells with a retroviral vector expressing anti-AR shRNA, followed by selection on hygromycin (FIG. 12). […]
(§5) For the experiments in FIG. 12, retroviral packaging and transduction were performed as follows. […] 10-14 days later, after complete death of control untransduced cells, the number of colonies was quantified, or cells were used for further experiments. […]
(§6) For the experiment in FIG. 12B, the number of colonies on each plate was counted and divided by number of colonies of AR-negative DU145 cells. […]

C4-2 cells = assay: Growth after retroviral anti-AR shRNA transduction and hygromycin selection, C4-2; settings: retroviral vector, hygromycin selection, control anti-GFP
Text: as §3, §4, §5, §6

AR mRNA [5] = assay: ARE-Luc activity with siRNAs against translated and untranslated regions of AR mRNA; settings: C4-2 cells, endogenous AR
Text: We next eliminated expression of the endogenous ligand-dependent AR in a way that would not affect the expression of the ARΔLBD mutant. To achieve this, we generated a series of lentiviral vectors expressing siRNA's against untranslated regions of AR mRNA that are missing in the generated ARΔLBD-expressing constructs. We tested their activity in C4-2 prostate cancer cells that have endogenous AR and in H1299 cells expressing only exogenous AR from the transduced construct. While all siRNA's against translated and untranslated regions of AR were active in inhibition of ARE-Luc activity in C4-2 cells, only siRNA's against translated regions were active in H1299 cells (FIG. 6).

endogenous AR = assay: Knock down of endogenous AR in CaP cells infected with lentiviral siAR6 and ARΔLBD; settings: simultaneous infection with siAR6 and ARΔLBD lentiviral vectors
Text: To generate completely ligand independent CaP cells, we simultaneously infected cells with lentiviral vectors expressing siAR6 and ARΔLBD.

## C[C@]12CCC(=O)C[C@@H]1CC[C@@H]1[C@@H]2CC[C@]2(C)[C@@H](O)CC[C@@H]12 [DHT, dehydrotestosterone]
AR [1]; CWR22R and 22Rv1 cells
  reporter induction by DHT: up to 3.5 fold
AR [1]; CWR22R cells with shAR and ARDLBD
  ARE-Luc reporter activation by DHT: do not respond
AR [1]; LNCaP, C4-2 and CWR22R cells, CSS containing 0-10 nm DHT
  reporter response to addition of DHT: reporter activation
CWR22R cells
  growth at high doses of DHT: minor growth suppressing effect
Hela cells
  growth in response to DHT: not affected
p21
  level of p21: higher
AR overexpressing cells
  growth of AR overexpressing cells compared to GFP expressing control: suppression of growth
AR [2]
  AR levels in cells transduced with AR-lentivirus: reduced AR levels to those observed prior transduction

## AR2: siRNA/shRNA against AR, sequence GCTGCTCCGCTGACCTTAA, SEQ ID NO 4, target 1642-1660 (listed as DNA, chemistry not given here)
AR mRNA [3]
  ARE-Luc reporter activity: inhibit ARE-Luc reporter activity
  ARE-Luc reporter activity on endogenous AR: inhibit ARE-Luc reporter activity
AR mRNA [3]; listed as shAR2
  ARE-Luc reporter activity on endogenous AR: did not completely block AR transcription
[4]
  growth of CaP cells expressing endogenous AR: no inhibitory activity

## CC(C)C[C@H](NC(=O)[C@H](Cc1ccccc1)NC(=O)c1cnccn1)B(O)O [PS341]
proteasomes; HeLa cells with ARΔLBD
  ARΔLBD protein level: remained unchanged
proteasomes; HeLa cells with wtAR
  wtAR protein level: increased; also recorded: accumulation of wild type AR protein

## AR1: siRNA/shRNA against AR, sequence GCTCAAGGATGGAAGTGCA, SEQ ID NO 3, target 1108-1126 (listed as DNA, chemistry not given here)
AR mRNA [3]
  ARE-Luc reporter activity: inhibit ARE-Luc reporter activity
  ARE-Luc reporter activity on endogenous AR: inhibit ARE-Luc reporter activity
AR mRNA [3]; listed as shAR1
  ARE-Luc reporter activity on endogenous AR: maximal activity
LNCaP cells
  cell growth: inhibited the growth
C4-2 cells
  cell growth: inhibited the growth
[4]
  growth of CaP cells expressing endogenous AR: growth inhibitory effect; also recorded: inhibits growth

## AR3: siRNA/shRNA against AR, sequence TCTCTGTGCAAGTGCCCAA, SEQ ID NO 5, target 3814-3832 (listed as DNA, chemistry not given here)
AR mRNA [3]
  ARE-Luc reporter activity: inhibit ARE-Luc reporter activity
  ARE-Luc reporter activity on endogenous AR: inhibit ARE-Luc reporter activity
AR mRNA [3]; listed as shAR3
  ARE-Luc reporter activity on endogenous AR: did not completely block AR transcription
[4]
  growth of CaP cells expressing endogenous AR: no inhibitory activity
  growth-inducing property on AR expressing CaP cells: some growth-inducing property

## AR6: siRNA against untranslated region of AR mRNA, sequence GTCAGGTCTTCAGTAGCCA, SEQ ID NO 6, target 688-706 (listed as DNA, chemistry not given here)
AR mRNA [5]
  inhibition of ARE-Luc activity: most effective
Endogenous AR
  knock down of endogenous AR: nearly complete knock down of endogenous AR
